Here are results for four molecules from US9370494B2, “Methods for treating hepatocellular carcinoma” (ABRAXIS BIOSCIENCE, LLC, priority 2010, dated 2016).

For one data set, the system named is HCC cells. The conditions noted are these: US Patent App. No. 2008/0045584; cited from earlier work.
The next data set concerns SK-HEP1/Luc+ xenograft. The data set is described as follows: SK-HEP1/Luc+ xenograft model. The conditions noted are these: 35 mmol/kg every two days for five times. The protocol:
SK-HEP1 luciferase stable clone was prepared by transfecting SK-HEP1 cells with firefly luciferase expression vector and selected with 500 ug/ml Geneticin (Gibco-BRL) for 4 weeks. Individual colonies were screened for bioluminescence activity using the Xenogen IVIS® imager (Alameda, Calif., USA). Clones with stable luminescence expression were used for in-vivo studies.
Male BALB/c nude mice at 6-8 weeks old with an average body weight of about 20 g were anesthetized by intraperitoneal injection of ketamine hydrochloride (120 mg/kg) (Fort Dodge Animal Health, Fort Dodge, Iowa, USA) plus xylazine (6 mg/kg) (Phoenix Scientific, Inc., St. Joseph, Mo., USA). Anesthetized animals then received 5×10^6 SK-HEP1/Luc+ cells suspended in 200 μl serum free medium by subcutaneous injection below the dorsal flank. Drug treatments started on day 14 after tumor cells inoculation. […] All drugs were given every two days for five times, at a dose of 35 mmol/kg. See Desai N. et al., Clinical Cancer Research, 12:1317-24 (2006). Tumor growth was monitored twice weekly by in-vivo bioluminescent imaging and by external caliper measurements using the formula of [(Length×Width^2)/2] for 24 days. For in-vivo bioluminescent imaging, 150 mg/kg D-luciferin were given by intraperitoneal injection and ten minutes after luciferin injection, mice were anesthetized by isoflurane and tumor cell viability was measured by the Xenogen IVIS® imager.

A further data set has as its system Hep3B cells. Kind of data set: MTT cell viability assay after siRNA transfection (STMN1 knockdown). In kind it is cell-based, human. The protocol: Cell viability was measured by MTT Assay. Cells grown in 96-well plates at density of 3000 cells per well were treated with drugs or siRNA transfection as indicated. […] The formazan formed was measured at 570 nm and cell viability is expressed as a percentage of maximum absorbance from 5 replicates in 3 independent experiments. The concentration of drug that inhibited cell survival by 50% (IC50) was determined from cell survival curves.
siRNA sequences included STMN1 siGENOME SMARTpool (si-STMN1) and siCONTROL Non-Targeting siRNA (si-mock). All siRNAs were chemically synthesized as double stranded RNA (Dharmacon) and introduced into cell lines by Lipofectamine 2000 (Invitrogen, Carlsbad, Calif., USA) according to manufacturer's instructions. Briefly, cells were incubated with 100 nM siRNA (si-STMN1 or si-mock). Six hours after transfection, medium was replaced by fresh growing medium. The expression of STMN1 was monitored by Western blot, which indicated a repressed expression for at least 3 days.
(Tetrazolium dyes change colour on reduction, which living cells bring about.)

Data set [1] relates to Hep3B, SK-HEP1 and HKCl-9 HCC cell lines. The data set is described as follows: MTT cell viability assay in HCC cell lines. The format is cell-based. The conditions noted are these: Homo sapiens; 48 h; range over the 3 cell lines Hep3B, SK-HEP1, HKCl-9.
Method: Human liver cancer cell lines Hep3B and SK-HEP1 acquired from ATCC were cultured in Dulbecco's modified Eagle medium with Glutamax-1 (Gibco-BRL, Grand Island, N.Y., USA) supplemented with 10% fetal bovine serum. HKCl-9 (as described in Chan K.Y. Y. et al., Modern Pathology 19:1546-54 (2006)) was cultured in AIMV medium (Gibco-BRL) supplemented with 1% L-Glutamine and 10% fetal bovine serum. All cells were cultured under a humidified atmosphere of 5% CO2 at 37° C.
For a further data set, the system named is HCC patients. The conditions noted are these: British Journal of Cancer 1998; cited from earlier work.
Data set [2] concerns hepatitis B-related HCC patients. The conditions noted are these: advanced stage patients; placebo 4.2 months; cited from earlier work.

Regarding `CC(=O)O[C@@]12CO[C@@H]1C[C@H](O)[C@@]1(C)C(=O)[C@H](O)C3=C(C)[C@@H](OC(=O)[C@H](O)[C@@H](NC(=O)OC(C)(C)C)c4ccccc4)C[C@@](O)([C@@H](OC(=O)c4ccccc4)[C@H]21)C3(C)C` [Docetaxel], the “Activity against HCC cells relative to paclitaxel” value in the data set on HCC cells was “more active against HCC cells than paclitaxel”. Also, the “Toxicity (weight loss, deaths)” value in the data set with SK-HEP1/Luc+ xenograft was “particularly severe”.
Regarding `COc1cccc2c1C(=O)c1c(O)c3c(c(O)c1C2=O)C[C@@](O)(C(=O)CO)C[C@@H]3O[C@H]1C[C@H](N)[C@H](O)[C@H](C)O1` [Doxorubicin], in the data set on Hep3B cells, the “Fold more sensitive after STMN1 knockdown (si-STMN1 vs si-mock)” value is “no effect”. Moreover, the IC50 (as a rule, the concentration at which inhibition is half-maximal) in data set [1] was in the range of 106 to 456 nM. In addition, the “Toxicity (weight loss, deaths)” value in the data set with SK-HEP1/Luc+ xenograft is on record as “particularly severe”.
`CC(=O)O[C@H]1C(=O)[C@@]2(C)[C@H]([C@H](OC(=O)c3ccccc3)[C@]3(O)C[C@H](OC(=O)[C@H](O)[C@@H](NC(=O)c4ccccc4)c4ccccc4)C(C)=C1C3(C)C)[C@]1(OC(C)=O)CO[C@@H]1C[C@@H]2O` [Paclitaxel]: in the data set on HCC patients, the “Anti-cancer effect in HCC patients” value is listed as “no significant anti-cancer effect”. The “Toxicity (weight loss, deaths)” value with SK-HEP1/Luc+ xenograft was “particularly severe”.
Turning to `CNC(=O)c1cc(Oc2ccc(NC(=O)Nc3ccc(Cl)c(C(F)(F)F)c3)cc2)ccn1` [Sorafenib], in data set [2], the Median overall survival is reported as 6.5 months.
